# Test results: patent US5494932A, “Sulfonic stilbene derivatives in the treatment of viral disease” (Merrell Dow Pharmaceuticals Inc., priority 1991, dated 1996)
# Like-named read-outs stand apart in the source and are kept apart here.
# Key:
# [1] = tested on: HIV-1 strain GB8 in JM cells; assay: Acute HIV-1 (GB8) infection of JM cells: syncytial counts and p24 antigen; assay type: cell-based, HIV-1 (human T cell line JM); details: for Mean Syncytial Counts: at day 4 p.i.; for inhibition of p24 viral core antigen / virus-induced multinucleated giant cell formation (syncytia): JM cells acutely infected with GB8; for order of antiviral potency: in all three host cell/virus systems (JM/GB8, C8166/RF, MT-4/RF)
# Excerpt: (§1) When evaluated in the human T cell line JM acutely infected with the GB8 virus, DIDS, H2 DIDS and SITS (Table I) suppressed virus-induced multinucleated giant cell formation (syncytia). […] We also examined the antiviral properties of these compounds in a second host-cell/virus system, i.e., the highly CD4+ C8166 cells infected with the Haitian strain of HIV-1, RF.
# (§2) The cell lines used were the semi-mature human lymphoblastoid leukemia T cell line JM, the human T-lymphoblastoid C8166 cell line, the human cutaneous T cell lymphoma line H9 and, the human T cell transformed line MT-4. Stocks of HIV-1 strains RF and GB8 (kindly provided by Dr. Graham Farrar, Center for Applied Microbiological Research, Porton Dawn, England) were prepared from chronically infected H9 cells and acutely infected JM cells, respectively. Virus stocks consisted of cell-free growth medium (RPMI 1640 plus 10% fetal calf serum) containing freshly shed virus. Virus titres were determined by a standard plaque reduction assay.
# (§3) Virus stocks (strains RF or GB8) were diluted into growth medium containing various concentrations of DIDS, H2 DIDS or SITS. The required number of cells were then immediately added and the virus allowed to absorb for 2 hours at 37° C. to give a multiplicity of infection (MOI) of 0.001 infectious units/cell. The virus-infected cells were pelleted, washed three times in phosphate buffered saline (PBS), and resuspended in fresh growth medium containing the appropriate concentrations of stilbene disulfonic acids. Cells were then distributed into 24-well culture plates (Falcon) and assayed as described below for virus infection. Alternatively, cells were first infected with HIV-1 (strains RF or GB8) for 2 hours at 37° C. at the above MOI. After extensive washing, cells were replated into fresh growth medium containing various concentrations of stilbene disulfonic acids. In the above experiments, syncytia were scored between 2 and 4 days postinfection (p.i.) in triplicate using an Olympus CK2 inverted microscope. The culture fluids were recovered between 3 and 5 days p.i., clarified by low speed centrifugation (2,000 rpm) for 5 minutes and the level of HIV-1 p24 core antigen in the supernatants was determined by p24 antigen ELISA (Coulter). The concentrations of stilbene disulfonic acids giving 50% inhibition of HIV-1 growth (IC50) were determined from the dose-response curves by linear regression analysis.
# Protocol: JM cells were infected with HIV-1 to give a multiplicity of infection of 0.001. Virus adsorption was for 2 hours at room temperature. The cells were washed and distributed into wells containing different concentrations of test compounds and incubated. After 2 days the cells were observed and syncytia were counted. The cell-free supernatant fluids were harvested at 4 and 6 days post infection and assayed for levels of p24 viral core antigen and after 6 days the supernatants were also titrated to determine levels of infectivity.
# [2] = tested on: HIV-1 strain RF in C8166 cells; assay: Acute HIV-1 (RF) infection of C8166 cells: syncytial and p24 antigen assays; assay type: cell-based, HIV-1 (human C8166 cells)
# Excerpt: as §1, §2, §3
# HSV 2 = assay: Plaque reduction assay, HSV 2; assay type: cell-based; details: for activity at 0.1 µg/mL / activity at 1 µg/mL / activity at 10 µg/mL / activity at 100 µg/mL: read-out: Mean % VC (plaques)
# Method: Protocol: Plaque reduction assay. Treatment after adsorption during incubation.
# [3] = Human immunodeficiency virus 1, 96 h, 12.5 μg/ml, read-out: p24 4 days p.i., % Control
# [4] = Human immunodeficiency virus 1, 96 h, 50 μg/ml, read-out: p24 4 days p.i., % Control
# [5] = Human immunodeficiency virus 1, 96 h, 100 μg/ml, read-out: p24 4 days p.i., % Control
# [6] = Human immunodeficiency virus 1, 144 h, read-out: P24 Antigen % Virus Control
# [7] = Human immunodeficiency virus 1, 144 h, 12.5 μg/ml, read-out: p24 6 days p.i., % Control
# [8] = Human immunodeficiency virus 1, 144 h, 25 μg/ml, read-out: p24 6 days p.i., % Control
# [9] = Human immunodeficiency virus 1, 144 h, 50 µg/mL, GB8 in JM cells, day 6 p.i., read-out: P24 Antigen % Virus Control
# [10] = Human immunodeficiency virus 1, 144 h, 50 μg/ml, read-out: p24 6 days p.i., % Control
# [11] = Human immunodeficiency virus 1, 144 h, 100 µg/mL, GB8 in JM cells, day 6 p.i., read-out: P24 Antigen % Virus Control
# [12] = Human immunodeficiency virus 1, 144 h, 100 μg/ml, read-out: p24 6 days p.i., % Control
# [13] = Human immunodeficiency virus 1, RF strain in C8166 cells, read-out: P24 Antigen % Virus Control (values in parenthesis)
compound,measurement,setting,value
"CC(=O)Nc1ccc(C=Cc2ccc(N=C=S)cc2S(=O)(=O)O)c(S(=O)(=O)O)c1 [SITS, 4-acetamido-4'-isothiocyanatostilbene-2,2'-disulfonic acid]",Mean Syncytial Counts 2 Days p.i.,[1]; 3 μg/ml,93
same,Mean Syncytial Counts,[1]; 6 μM,93
same,Mean Syncytial Counts 2 Days p.i.,[1]; 6 μg/ml,72
same,Mean Syncytial Counts,[1]; 12 μM,72
same,Mean Syncytial Counts 2 Days p.i.,[1]; 12.5 μg/ml,63
same,p24 4 days p.i.,[1]; 12.5 μg/ml,185000 pg/mL
same,p24 6 days p.i.,[1]; 12.5 μg/ml,1.51 × 10^6 pg/m.
same,Mean Syncytial Counts,[1]; 25 μM,63
same,Mean Syncytial Counts 2 Days p.i.,[1]; 25 μg/ml,63
same,p24 4 days p.i.,[1]; 25 μg/ml,153000 pg/mL
same,p24 6 days p.i.,[1]; 25 μg/ml,1.26 × 10^6 pg/m.
same,Mean Syncytial Counts,[1]; 50 μM,63
same,Mean Syncytial Counts 2 Days p.i.,[1]; 50 μg/ml,15
same,p24 4 days p.i.,[1]; 50 μg/ml,62500 pg/mL
same,p24 6 days p.i.,[1]; 50 μg/ml,2.45 × 10^5 pg/m.
same,Mean Syncytial Counts,[1]; 100 μM,15
same,Mean Syncytial Counts 2 Days p.i.,[1]; 100 μg/ml,0
same,p24 4 days p.i.,[1]; 100 μg/ml,1140 pg/mL
same,p24 6 days p.i.,[1]; 100 μg/ml,2.2 × 10^4 pg/m.
same,Mean Syncytial Counts,[1]; 200 μM,0
same,activity at 25 µg/mL,"[1]; Human immunodeficiency virus 1, 96 h, read-out: p24 4 days p.i., % Control",100%
same,activity at 12.5 µg/mL,[1]; [3],100%
same,activity at 50 µg/mL,[1]; [4],85%
same,activity at 100 µg/mL,[1]; [5],1.6%
same,activity at 200 µM,[1]; [6],1.6%
same,activity at 12.5 µg/mL,[1]; [7],69%
same,activity at 25 µg/mL,[1]; [8],58%
same,activity at 50 µg/mL,[1]; [9],100%
same,activity at 50 µg/mL,[1]; [10],11.2%
same,activity at 100 µg/mL,[1]; [11],85%
same,activity at 100 µg/mL,[1]; [12],1%
same,inhibition of p24 viral core antigen,[1],dose-dependent inhibition
same,virus-induced multinucleated giant cell formation (syncytia),[1],suppressed
same,order of antiviral potency,[1],DIDS>H2 DIDS>>SITS
same,activity in syncytial and p24 antigen assays,"[2]; 100 μg/ml, C8166 cells infected with RF",inactive
same,activity at 50 µg/mL,[2]; [13],> 100%
same,activity at 100 µg/mL,[2]; [13],> 100%
same,activity at 200 µg/mL,[2]; [13],> 100%
same,Plaque counts,"HSV 2; 0.1 μg/ml, first count",34
same,Plaque counts,"HSV 2; 0.1 μg/ml, second count",26
same,Plaque counts,"HSV 2; 1 μg/ml, first count",28
same,Plaque counts,"HSV 2; 1 μg/ml, second count",25
same,Plaque counts,"HSV 2; 1 μg/ml, third count",23
same,Plaque counts,"HSV 2; 10 μg/ml, first count",25
same,Plaque counts,"HSV 2; 10 μg/ml, second count",25
same,Plaque counts,"HSV 2; 10 μg/ml, third count",24
same,Plaque counts,"HSV 2; 100 μg/ml, first count",16
same,Plaque counts,"HSV 2; 100 μg/ml, second count",13
same,activity at 0.1 µg/mL,HSV 2,> 100%
same,activity at 1 µg/mL,HSV 2,100%
same,activity at 10 µg/mL,HSV 2,100%
same,activity at 100 µg/mL,HSV 2,63%
"O=S(=O)(O)c1cc(N=C=S)ccc1C=Cc1ccc(N=C=S)cc1S(=O)(=O)O [DIDS, 4,4'-diisothiocyanatostilbene-2,2'-disulfonic acid]",Mean Syncytial Counts 2 Days p.i.,[1]; 3 μg/ml,114
same,Mean Syncytial Counts,[1]; 6 μM,114
same,Mean Syncytial Counts 2 Days p.i.,[1]; 6 μg/ml,101
same,Mean Syncytial Counts,[1]; 12 μM,101
same,Mean Syncytial Counts 2 Days p.i.,[1]; 12.5 μg/ml,31
same,p24 4 days p.i.,[1]; 12.5 μg/ml,110000 pg/mL
same,p24 6 days p.i.,[1]; 12.5 μg/ml,2.44 × 10^6 pg/m.
same,Mean Syncytial Counts,[1]; 25 μM,31
same,Mean Syncytial Counts 2 Days p.i.,[1]; 25 μg/ml,0
same,p24 4 days p.i.,[1]; 25 μg/ml,4700 pg/mL
same,p24 6 days p.i.,[1]; 25 μg/ml,1.21 × 10^6 pg/m.
same,Mean Syncytial Counts,[1]; 50 μM,0
same,Mean Syncytial Counts 2 Days p.i.,[1]; 50 μg/ml,0
same,p24 4 days p.i.,[1]; 50 μg/ml,130 pg/mL
same,p24 6 days p.i.,[1]; 50 μg/ml,1.23 × 10^4 pg/m.
same,Mean Syncytial Counts,[1]; 100 μM,0
same,Mean Syncytial Counts 2 Days p.i.,[1]; 100 μg/ml,0
same,p24 4 days p.i.,[1]; 100 μg/ml,None detected
same,p24 6 days p.i.,[1]; 100 μg/ml,4.87 × 10^2 pg/m.
same,Mean Syncytial Counts,[1]; 200 μM,0
same,activity at 12.5 µg/mL,[1]; [3],> 100%
same,activity at 25 µg/mL,"[1]; Human immunodeficiency virus 1, 96 h, 25 μg/ml, read-out: p24 4 days p.i., % Control",6.4%
same,activity at 50 µg/mL,[1]; [4],0.18%
same,activity at 100 µg/mL,[1]; [5],0%
same,activity at 200 µM,[1]; [6],0.02%
same,activity at 12.5 µg/mL,[1]; [7],> 100%
same,activity at 25 µg/mL,"[1]; Human immunodeficiency virus 1, 144 h, 25 µg/mL, GB8 in JM cells, day 6 p.i., read-out: P24 Antigen % Virus Control",100%
same,activity at 25 µg/mL,[1]; [8],56%
same,activity at 50 µg/mL,[1]; [9],6.4%
same,activity at 50 µg/mL,[1]; [10],0.56%
same,activity at 100 µg/mL,[1]; [11],0.56%
same,activity at 100 µg/mL,[1]; [12],0.02%
same,inhibition of p24 viral core antigen,[1],dose-dependent inhibition
same,virus-induced multinucleated giant cell formation (syncytia),[1],suppressed
same,order of antiviral potency,[1],DIDS>H2 DIDS>>SITS
same,HIV-1 infection,[2]; C8166 cells infected with RF,blocked HIV-1 infection
same,activity at 25 µg/mL,"[2]; Human immunodeficiency virus 1, 25 µg/mL, RF strain in C8166 cells, read-out: P24 Antigen % Virus Control (values in parenthesis)",100%
same,activity at 50 µg/mL,[2]; [13],83%
same,activity at 100 µg/mL,[2]; [13],33%
same,activity at 200 µg/mL,[2]; [13],4.8%
same,Plaque counts,"HSV 2; 0.1 μg/ml, first count",37
same,activity at 0.1 µg/mL,HSV 2; 0.1 μg/ml,68%
same,Plaque counts,"HSV 2; 0.1 μg/ml, second count",40
same,Plaque counts,"HSV 2; 1 μg/ml, first count",31
same,activity at 1 µg/mL,HSV 2; 1 μg/ml,61%
same,Plaque counts,"HSV 2; 1 μg/ml, second count",33
same,Plaque counts,"HSV 2; 1 μg/ml, third count",39
same,Plaque counts,"HSV 2; 10 μg/ml, first count",25
same,activity at 10 µg/mL,HSV 2; 10 μg/ml,44%
same,Plaque counts,"HSV 2; 10 μg/ml, second count",25
same,Plaque counts,"HSV 2; 10 μg/ml, third count",25
same,Plaque counts,"HSV 2; 100 μg/ml, first count",0
same,activity at 100 µg/mL,HSV 2; 100 μg/ml,0%
same,Plaque counts,"HSV 2; 100 μg/ml, second count",0
same,Plaque counts,"HSV 2; 100 μg/ml, third count",0
